Reference: the NIST ThermoML archive (doi:10.1021/je800071q)
Numbers after ± are expanded uncertainties.

Legend:
[1] = 101.33 kPa, Liquid; for mass density: 298.1 K; for viscosity: 298.15 K
[2] = refractive index (Na D-line) (dimensionless); details: 298.1 K, 101.33 kPa, Liquid
[3] = Capillary tube (Ostwald / Ubbelohde) method

| Structure (SMILES) | mass density [1] [kg/m3] | viscosity [1] [mPa·s] | refractive index [2] | mass density ([1]; Vibrating tube method) [kg/m3] | refractive index ([2]; Standard Abbe refractometry) | viscosity [1, 3] [mPa·s] |
| --- | --- | --- | --- | --- | --- | --- |
| CCCCCCCCn1cc[n+](C)c1.O=S(=O)([N-]S(=O)(=O)C(F)(F)F)C(F)(F)F | 1319.78 ± 4.3 | 90.37 ± 4.8 | 1.4327 ± 0.00089 |  |  |  |
| CC(C)CC(C)(C)C [2,2,4-trimethylpentane] |  |  |  | 687.84 ± 0.23 | 1.38921 ± 0.00041 |  |
| c1ccsc1 [thiophene] |  |  |  | 1058.59 ± 0.14 | 1.5253 ± 0.00041 | 0.612 ± 0.007 |
| Cc1ccccc1 [toluene] |  |  |  | 862.2 ± 0.16 | 1.49393 ± 0.00041 | 0.577 ± 0.007 |
